Molecules are shown by their SMILES. pIC50: −log10 of the molar value. Where only a bound is given, the exact number is not on record here.

What is called pIC50 is the negative decadic logarithm of the IC50, by convention in mol/L. A word on the IC50: it is the midpoint of a concentration-inhibition curve.

The target of the first test is T1, N-terminally GST-tagged human full length recombinant Mps-1 kinase (Homo sapiens, UniProt P33981).
T1 construct: N-terminally GST-tagged human full length recombinant Mps-1 kinase; purchased Invitrogen, Karslruhe, Germany PV4071
T1 sequence (P33981 1-857): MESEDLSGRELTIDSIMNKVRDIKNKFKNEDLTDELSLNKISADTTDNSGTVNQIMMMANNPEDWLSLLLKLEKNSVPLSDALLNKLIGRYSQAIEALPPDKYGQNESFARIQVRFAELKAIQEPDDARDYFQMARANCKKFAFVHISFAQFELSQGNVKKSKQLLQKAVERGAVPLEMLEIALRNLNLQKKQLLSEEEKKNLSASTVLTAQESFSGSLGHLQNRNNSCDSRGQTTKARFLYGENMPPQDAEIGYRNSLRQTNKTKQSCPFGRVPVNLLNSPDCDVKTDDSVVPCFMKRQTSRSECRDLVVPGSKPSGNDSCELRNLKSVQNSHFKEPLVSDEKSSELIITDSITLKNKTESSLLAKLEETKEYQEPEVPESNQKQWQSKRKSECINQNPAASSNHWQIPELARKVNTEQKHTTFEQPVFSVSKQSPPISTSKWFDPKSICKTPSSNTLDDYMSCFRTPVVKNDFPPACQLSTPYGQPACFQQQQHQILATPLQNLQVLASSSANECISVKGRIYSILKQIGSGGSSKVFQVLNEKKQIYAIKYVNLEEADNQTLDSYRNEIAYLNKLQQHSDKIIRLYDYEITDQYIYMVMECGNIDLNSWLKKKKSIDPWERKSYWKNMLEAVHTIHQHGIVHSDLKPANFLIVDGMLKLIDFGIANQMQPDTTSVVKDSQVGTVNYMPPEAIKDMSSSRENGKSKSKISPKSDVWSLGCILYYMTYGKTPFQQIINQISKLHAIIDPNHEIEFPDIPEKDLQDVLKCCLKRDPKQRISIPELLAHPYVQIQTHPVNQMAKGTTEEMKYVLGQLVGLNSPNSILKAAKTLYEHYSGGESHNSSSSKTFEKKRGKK
The test is described as follows: Mps-1 kinase assay (TR-FRET). The settings on record: 10 μM ATP, 1 μM peptide substrate, 60 min at 22° C., read-out: Mps1 IC50. The test is classed as biochemical. In a few lines: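 TR-FRET signal between a Europium anti-phospho-Ser/Thr antibody and streptavidin-XLent reported phosphorylation of a biotinylated peptide by GST-tagged full-length Mps-1. Enzyme was near 1 nM final, chosen per lot for linearity.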
(In general: Time-resolved FRET reads energy transfer from a long-lived donor to a nearby acceptor.)
`Cc1cc(-c2cnc3c(NCC4CC[S+]([O-])CC4)cc(Sc4ccccc4)nn23)ccc1C(=O)NC1CC1` (stereo not drawn) [Example 303B, N-cyclopropyl-2-methyl-4-[8-({[(trans)-1-oxidotetrahydro-2H-thiopyran-4-yl]methyl}amino)-6-(phenylsulfanyl)imidazo[1,2-b]pyridazin-3-yl]benzamide]: the pIC50 is 9.70.

The same test, now with this note: Mps1 IC50 [nM], 10 μM ATP, 1 μM peptide substrate, 60 min at 22° C.
On to `Cc1ccc(F)cc1Oc1cc(NCCN2CCOCC2)c2ncc(-c3ccc(C(=O)NC4CC4)c(C)c3)n2n1` [Example 537, N-cyclopropyl-4-[6-(5-fluoro-2-methylphenoxy)-8-{[2-(morpholin-4-yl)ethyl]amino}imidazo[1,2-b]pyridazin-3-yl]-2-methylbenzamide], for which the 50% inhibitory concentration (IC50) is 0.2 nM.

For `Cc1cc(-c2cnc3c(NCCC(F)(F)F)cc(Oc4cccc(C(C)C)c4O)nn23)ccc1C(=O)NC1CC1` [Example 441, N-cyclopropyl-4-{6-[2-hydroxy-3-(propan-2-yl)phenoxy]-8-[(3,3,3-trifluoropropyl)amino]imidazo[1,2-b]pyridazin-3-yl}-2-methylbenzamide], the IC50 was found to be 0.5 nM.

Consider `CC(C)CNc1cc(-c2ccccc2F)nn2c(-c3ccc(C(=O)NC4CC4)cc3)cnc12` [Example 132, N-cyclopropyl-4-{6-(2-fluorophenyl)-8-[(2-methylpropyl)amino]imidazo[1,2-b]pyridazin-3-yl}benzamide], for which the IC50 stood at 1.5 nM.

Turning to `CCNC(=O)c1ccc(-c2cnc3c(NCCC(F)(F)F)cc(Oc4ccc(Cl)cc4)nn23)cc1C` [Example 559, 4-{6-(4-chlorophenoxy)-8-[(3,3,3-trifluoropropyl)amino]imidazo[1,2-b]pyridazin-3-yl}-N-ethyl-2-methylbenzamide], the half-maximal inhibitory concentration (IC50) came out at 0.6 nM.

Take `Cc1cc(-c2cnc3c(NCC(C)(C)O)cc(-c4cncc(C#N)c4)nn23)ccc1C(=O)NC1CC1` [Example 234, 4-{6-(5-cyanopyridin-3-yl)-8-[(2-hydroxy-2-methylpropyl)amino]imidazo[1,2-b]pyridazin-3-yl}-N-cyclopropyl-2-methylbenzamide]: the IC50 was found to be 6.1 nM.

Regarding `Cc1cc(-c2cnc3c(NCCC(F)(F)F)cc(Oc4cccc5ccc(=O)[nH]c45)nn23)ccc1C(=O)NC1CC1` [Example 468, N-cyclopropyl-2-methyl-4-{6-[(2-oxo-1,2-dihydro-quinolin-8-yl)oxy]-8-[(3,3,3-trifluoropropyl)amino]imidazo[1,2-b]pyridazin-3-yl} benzamide], the half-inhibitory concentration (IC50) is 7.5 nM.

Turning to `CSc1cc(NCc2ccnn2C)c2ncc(-c3ccc(C(=O)NC4CC4)c(C)c3)n2n1` [Example 237, N-cyclopropyl-2-methyl-4-[8-{[(1-methyl-1H-pyrazol-5-yl)methyl]amino}-6-(methylsulfanyl)imidazo[1,2-b]pyridazin-3-yl]benzamide], the IC50 worked out at 5.6 nM.

For the molecule `Cc1cc(-c2cnc3c(NCC4CCSCC4)cc(Sc4cccc(F)c4)nn23)ccc1C(=O)NC1CC1` [Example 285, N-cyclopropyl-4-{6-[(3-fluorophenyl)sulfanyl]-8-[(tetrahydro-2H-thiopyran-4-ylmethyl)amino]imidazo[1,2-b]pyridazin-3-yl}-2-methylbenzamide], the concentration for half-maximal inhibition (IC50) was 0.4 nM.

Regarding `Cc1cc(-c2cnc3c(NCC(O)C(F)(F)F)cc(Cl)nn23)ccc1C(=O)NC1CC1` (racemic) [Example 205, (RS)-4-{6-Chloro-8-[(3,3,3-trifluoro-2-hydroxypropyl)amino]imidazo[1,2-b]pyridazin-3-yl}-N-cyclopropyl-2-methylbenzamide], the IC50 was determined as 72.7 nM.

Consider `c1cc(-c2cc(NCC3CCCCO3)c3ncc(-c4ccc(-c5cnc(C6CC6)[nH]5)cc4)n3n2)ccn1` (racemic) [Example 29, (RS) 3-[4-(2-Cyclopropyl-1H-imidazol-5-yl)phenyl]-6-(pyridin-4-yl)-N-(tetrahydro-2H-pyran-2-ylmethyl)imidazo[1,2-b]pyridazin-8-amine], for which the IC50 was 80.2 nM.

As to `Cc1cc(-c2cnc3c(NCCN(C)C)cc(Oc4cccnc4)nn23)ccc1C(=O)NC1CC1` [Example 524, N-cyclopropyl-4-[8-{[2-(dimethylamino)ethyl]amino}-6-(pyridin-3-yloxy)imidazo [1,2-b]pyridazin-3-yl]-2-methylbenzamide], the IC50 was found to be 2.3 nM.

For the molecule `Cc1cc(-c2cnc3c(NCCCN(C)C)cc(Oc4cccc(F)c4)nn23)ccc1C(=O)NC1CC1` [Example 312, N-cyclopropyl-4-[8-{[3-(dimethylamino)propyl]amino}-6-(3-fluorophenoxy)imidazo[1,2-b]pyridazin-3-yl]-2-methyl-benzamide], the IC50 turned out to be 0.2 nM.

With `COc1cccc(-c2cc(NCC(C)C)c3ncc(-c4ccc(C(=O)NC5CC5)cc4)n3n2)c1` [Example 125, N-cyclopropyl-4-{6-(3-methoxyphenyl)-8-[(2-methylpropyl)amino]imidazo[1,2-b]pyridazin-3-yl}benzamide], the 50% inhibitory concentration (IC50) worked out at 3.8 nM.

In the case of `CC(C)CNc1cc(-c2ccc(F)cc2)nn2c(-c3ccc(C(=O)NC4CC4)cc3)cnc12` [Example 104, N-cyclopropyl-4-{6-(4-fluorophenyl)-8-[(2-methylpropyl)amino]imidazo[1,2-b]pyridazin-3-yl}benzamide], the IC50 is under 1 nM.

As for `Cc1cc(-c2cnc3c(NCC4CN(C)CCO4)cc(-c4ccc(F)cc4)nn23)ccc1C(=O)NC1CC1` (racemic) [Example 229, (RS)—N-cyclopropyl-4-[6-(4-fluorophenyl)-8-{[(4-methylmorpholin-2-yl)methyl]amino}imidazo[1,2-b]pyridazin-3-yl]-2-methylbenzamide], the IC50 is 2.6 nM.

In the case of `CCNC(=O)c1ccc(-c2cnc3c(NCCN4CCOCC4)cc(Oc4ccccc4C)nn23)cc1C` [Example 589, N-ethyl-2-methyl-4-[6-(2-methylphenoxy)-8-{[2-(morpholin-4-yl)ethyl]amino}imidazo[1,2-b]pyridazin-3-yl]benzamide], the IC50 was 4.3 nM.

`Cc1cc(-c2cnc3c(NCCC(F)(F)F)cc(Oc4cccc(F)c4)nn23)ccc1C(=O)NCC(C)C` [Example 557, 4-{6-(3-fluorophenoxy)-8-[(3,3,3-trifluoropropyl)amino]imidazo[1,2-b]pyridazin-3-yl}-N-isobutyl-2-methylbenzamide]: the IC50 came out at 2.2 nM.

Turning to `Cc1cc(-c2cnc3c(NCCN4CCCC4)cc(Oc4cccc(F)c4)nn23)ccc1C(=O)NC1CC1` [Example 502, N-cyclopropyl-4-[6-(3-fluoro-phenoxy)-8-{[2-(pyrrolidin-1-yl)ethyl]amino}imidazo[1,2-b]pyridazin-3-yl]-2-methyl-benzamide], the IC50 worked out at 0.2 nM.

With `CC=Cc1cc(NCC(C)(C)O)c2ncc(-c3ccc(C(=O)NC4CC4)c(C)c3)n2n1` (mixture of isomers) [Example 24, N-cyclopropyl-4-{8-[(2-hydroxy-2-methylpropyl)amino]-6-[(1E/Z)-prop-1-en-1-yl]imidazo[1,2-b]pyridazin-3-yl}-2-methylbenzamide], the IC50 turned out to be 23.8 nM.

On to `Cc1ccc(F)c(Nc2cc(NCCC(F)(F)F)c3ncc(-c4ccc(C(=O)NC5CC5)c(C)c4)n3n2)c1` [Example 367, N-cyclopropyl-4-{6-[(2-fluoro-5-methylphenyl)amino]-8-[(3,3,3-trifluoropropyl)amino]imidazo[1,2-b]pyridazin-3-yl}-2-methylbenzamide], for which the IC50 turned out to be 0.1 nM.

`CC(C)(O)CNc1cc(Sc2cccc(F)c2)nn2c(-c3ccc(C(=S)NC4CC4)cc3)cnc12` [Example 246, N-cyclopropyl-4-{6-[(3-fluorophenyl)sulfanyl]-8-[(2-hydroxy-2-methylpropyl)amino]imidazo[1,2-b]pyridazin-3-yl}benzenecarbothioamide]: the IC50 worked out at 0.6 nM.

Regarding `Cc1cc(-c2cnc3c(NCCn4cccn4)cc(Oc4cccc(F)c4)nn23)ccc1C(=O)NC1CC1` [Example 515, N-cyclopropyl-4-[6-(3-fluoro-phenoxy)-8-{[2-(1H-pyrazol-1-yl)ethyl]amino}imidazo[1,2-b]pyridazin-3-yl]-2-methyl-benzamide], the half-inhibitory concentration (IC50) is 0.4 nM.

In the case of `Cc1cc(-c2cnc3c(NC[C@@H]4CCCO4)cc(-c4ccncc4)nn23)ccc1C(=O)NC1CC1` [Example 31, N-cyclopropyl-2-methyl-4-[6-(pyridin-4-yl)-8-{[(2S)-tetrahydrofuran-2-ylmethyl]amino}imidazo[1,2-b]pyridazin-3-yl]benzamide], the concentration for half-maximal inhibition (IC50) was 1.1 nM.

As to `CNC(=O)c1ccc(-c2cnc3c(NCC(C)C)cc(Cl)nn23)cc1` [Example 178, 4-{6-Chloro-8-[(2-methylpropyl)amino]imidazo[1,2-b]pyridazin-3-yl}-N-methylbenzamide], the concentration for half-maximal inhibition (IC50) worked out at 172 nM.

Values taken from US9255100B2 (BAYER INTELLECTUAL PROPERTY GMBH, priority 2010, dated 2016).
